Values joined by “and” are separate entries in the source; they are usually repeats but may differ in a detail not shown here. Equal values may be shown once. Inconclusive results and toxic doses are left out.
Tested on: BDF1 mice, P388 leukemia ip, median survival T/C
Assay: NCI In Vivo Anticancer Drug Screen. Data for tumor model P388 Leukemia (intraperitoneal) in B6D2F1 (BDF1) mice
Settings: endpoint: median survival time, higher = longer survival
In short: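 Each value expresses how treatment altered survival: treated-mouse outcome over vehicle-mouse outcome, both groups bearing the transplanted tumour.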

[1] = dose: 50.0 mg/kg/injection, schedule: Q01DX009 (ip), vehicle: water
[2] = dose: 50.0 mg/kg/injection, schedule: Q01DX009 (ip), vehicle: saline with Tween-80
[3] = dose: 100.0 mg/kg/injection, schedule: Q01DX009 (ip), vehicle: saline with Tween-80
[4] = dose: 200.0 mg/kg/injection, schedule: Q01DX009 (ip), vehicle: saline with Tween-80
[5] = dose: 50.0 mg/kg/injection, schedule: Q04DX003 (ip), vehicle: water
[6] = dose: 100.0 mg/kg/injection, schedule: Q04DX003 (ip), vehicle: water
[7] = dose: 50.0 mg/kg/injection, schedule: Q01DX005 (ip), vehicle: saline with Tween-80
[8] = dose: 100.0 mg/kg/injection, schedule: Q01DX005 (ip), vehicle: saline with Tween-80
[9] = dose: 50.0 mg/kg/injection, schedule: Q01DX009 (ip), vehicle: saline
[10] = dose: 100.0 mg/kg/injection, schedule: Q01DX009 (ip), vehicle: saline
[11] = dose: 100.0 mg/kg/injection, schedule: Q04DX002 (ip), vehicle: saline with Tween-80
[12] = dose: 200.0 mg/kg/injection, schedule: Q04DX002 (ip), vehicle: saline with Tween-80
[13] = dose: 400.0 mg/kg/injection, schedule: Q04DX002 (ip), vehicle: saline with Tween-80
[14] = dose: 100.0 mg/kg/injection, schedule: Q04DX003 (ip), vehicle: Klucel (hydroxypropylcellulose) (HPC)
[15] = dose: 400.0 mg/kg/injection, schedule: Q04DX003 (ip), vehicle: Klucel (hydroxypropylcellulose) (HPC)

COc1ccc(C(=O)/C(Br)=C/C(=O)O)cc1
T/C (dose: 6.3 mg/kg/injection, schedule: Q01DX009 (ip), vehicle: saline): 106 % of control | T/C (dose: 12.5 mg/kg/injection, schedule: Q01DX009 (ip), vehicle: water): 120 % of control | T/C (dose: 25.0 mg/kg/injection, schedule: Q01DX009 (ip), vehicle: water): 150 % of control | T/C (dose: 25.0 mg/kg/injection, schedule: Q04DX002 (ip), vehicle: saline): 108 % of control and 109 % of control | T/C [1]: 100 % of control | T/C (dose: 50.0 mg/kg/injection, schedule: Q04DX002 (ip), vehicle: saline): 116 % of control and 118 % of control | T/C (dose: 100.0 mg/kg/injection, schedule: Q04DX002 (ip), vehicle: saline): 150 % of control

Cn1c(=O)c(S(C)=O)c(O)c2ccccc21 (configuration not stated)
T/C [2]: 118 % of control | T/C [3]: 100 % of control | T/C [4]: 112 % of control

Cc1c[n+]([O-])ccc1Br
T/C (dose: 6.25 mg/kg/injection, schedule: Q04DX003 (ip), vehicle: water): 100 % of control | T/C (dose: 12.5 mg/kg/injection, schedule: Q04DX003 (ip), vehicle: water): 100 % of control | T/C (dose: 25.0 mg/kg/injection, schedule: Q04DX003 (ip), vehicle: water): 112 % of control | T/C [5]: 99 % of control | T/C [6]: 100 % of control

CC(=O)OC(=O)C(Cc1ccccc1)NC(=O)C(N)CCCN=C(N)N (configuration not stated)
T/C [7]: 98 % of control | T/C [8]: 103 % of control

COc1cc(NC(C)CCCN)c2nccc(C)c2c1 (configuration not stated)
T/C (dose: 12.5 mg/kg/injection, schedule: Q01DX009 (ip), vehicle: saline): 101 % of control | T/C (dose: 25.0 mg/kg/injection, schedule: Q01DX009 (ip), vehicle: saline): 101 % of control | T/C [9]: 90 % of control and 107 % of control | T/C [10]: 88 % of control

CC1(C)C2CCC1(C)C(Cl)C2 (configuration not stated)
T/C [11]: 100 % of control | T/C [12]: 103 % of control | T/C [13]: 107 % of control

CN(c1ccccc1)c1nc(=O)c2cc3ccc(=O)oc3cc2o1
T/C [11]: 99 % of control | T/C [12]: 109 % of control | T/C [13]: 100 % of control

O=P(N1CCCC1)(N1CC1)N1CC1
T/C (dose: 0.74 mg/kg/injection, schedule: Q01DX009 (ip), vehicle: saline): 89 % of control | T/C (dose: 1.11 mg/kg/injection, schedule: Q01DX009 (ip), vehicle: saline): 98 % of control | T/C (dose: 1.67 mg/kg/injection, schedule: Q01DX009 (ip), vehicle: saline): 121 % of control | T/C (dose: 2.2 mg/kg/injection, schedule: Q01DX009 (ip), vehicle: saline): 205 % of control | T/C (dose: 2.2 mg/kg/injection, schedule: Q04DX003 (ip), vehicle: saline): 113 % of control | T/C (dose: 2.5 mg/kg/injection, schedule: Q01DX009 (ip), vehicle: saline): 180 % of control | T/C (dose: 3.3 mg/kg/injection, schedule: Q01DX009 (ip), vehicle: saline): 255 % of control | T/C (dose: 5.0 mg/kg/injection, schedule: Q01DX009 (ip), vehicle: saline): 268 % of control and 317 % of control | T/C (dose: 5.56 mg/kg/injection, schedule: Q04DX003 (ip), vehicle: saline): 150 % of control | T/C (dose: 7.5 mg/kg/injection, schedule: Q01DX009 (ip), vehicle: saline): 112 % of control | T/C (dose: 7.5 mg/kg/injection, schedule: Q04DX003 (ip), vehicle: saline): 182 % of control | T/C (dose: 8.33 mg/kg/injection, schedule: Q04DX003 (ip), vehicle: saline): 204 % of control | T/C (dose: 12.5 mg/kg/injection, schedule: Q04DX003 (ip), vehicle: saline): 240 % of control and 250 % of control | T/C (dose: 18.7 mg/kg/injection, schedule: Q04DX003 (ip), vehicle: saline): 272 % of control

NCc1c(Cl)c(Cl)c(Cl)c(CN)c1Cl
T/C [2]: 100 % of control | T/C [3]: 90 % of control | T/C [4]: 86 % of control

C/C(=N/N)c1ccc(Br)cc1
T/C (dose: 3.0 mg/kg/injection, schedule: Q01DX009 (ip), vehicle: saline with Tween-80): 103 % of control | T/C (dose: 6.0 mg/kg/injection, schedule: Q01DX009 (ip), vehicle: saline with Tween-80): 92 % of control | T/C (dose: 22.0 mg/kg/injection, schedule: Q04DX003 (ip), vehicle: saline with Tween-80): 118 % of control | T/C (dose: 34.0 mg/kg/injection, schedule: Q04DX003 (ip), vehicle: saline with Tween-80): 118 % of control and 122 % of control | T/C (dose: 50.0 mg/kg/injection, schedule: Q04DX003 (ip), vehicle: saline with Tween-80): 122 % of control

CCN(CC)CCCCCNc1cc(Cl)c(Cl)cc1[N+](=O)[O-]
T/C [9]: 111 % of control | T/C [10]: 100 % of control

S=C(N/N=C1\CSCc2ccccc21)Nc1cc(Cl)ccc1Cl
T/C [2]: 90 % of control | T/C [4]: 88 % of control

c1ccc(CNCCOB(OCCNCc2ccccc2)OCCNCc2ccccc2)cc1
T/C [14]: 100 % of control | T/C (dose: 200.0 mg/kg/injection, schedule: Q04DX003 (ip), vehicle: Klucel (hydroxypropylcellulose) (HPC)): 104 % of control | T/C [15]: 100 % of control

COc1ccc(C2CC(c3ccccc3O)=NC(c3ccc(OC)cc3)N2)cc1 (configuration not stated)
T/C (dose: 25.0 mg/kg/injection, schedule: Q01DX009 (ip), vehicle: saline with Tween-80): 91 % of control | T/C [2]: 94 % of control | T/C [3]: 92 % of control

CC(C)(O)c1cc(Cl)ccc1Sc1ccccc1
T/C (dose: 100.0 mg/kg/injection, schedule: Q04DX003 (ip), vehicle: saline with Tween-80): 105 % of control | T/C (dose: 200.0 mg/kg/injection, schedule: Q04DX003 (ip), vehicle: saline with Tween-80): 91 % of control | T/C (dose: 400.0 mg/kg/injection, schedule: Q04DX003 (ip), vehicle: saline with Tween-80): 108 % of control

N#Cc1cn[nH]c1N
T/C [9]: 100 % of control | T/C [10]: 109 % of control | T/C (dose: 200.0 mg/kg/injection, schedule: Q01DX009 (ip), vehicle: saline): 98 % of control

CCc1cc(O)c(Cl)c(C)c1Cl
T/C (dose: 50.0 mg/kg/injection, schedule: Q01DX009 (ip), vehicle: gum acacia): 119 % of control | T/C (dose: 50.0 mg/kg/injection, schedule: Q04DX003 (ip), vehicle: gum acacia): 111 % of control | T/C (dose: 100.0 mg/kg/injection, schedule: Q01DX009 (ip), vehicle: gum acacia): 111 % of control | T/C (dose: 100.0 mg/kg/injection, schedule: Q04DX003 (ip), vehicle: gum acacia): 100 % of control | T/C (dose: 200.0 mg/kg/injection, schedule: Q04DX003 (ip), vehicle: gum acacia): 100 % of control

C=CC[N+](C)(CC=C)CC[N+](C)(CC=C)CC=C
T/C [1]: 95 % of control | T/C [5]: 109 % of control | T/C (dose: 100.0 mg/kg/injection, schedule: Q01DX009 (ip), vehicle: water): 104 % of control | T/C [6]: 104 % of control | T/C (dose: 150.0 mg/kg/injection, schedule: Q01DX009 (ip), vehicle: water): 95 % of control

CN(C)c1ccc2c(Cl)cc(Cl)nc2c1
T/C (dose: 12.5 mg/kg/injection, schedule: Q01DX009 (ip), vehicle: Klucel (hydroxypropylcellulose) (HPC)): 109 % of control | T/C (dose: 25.0 mg/kg/injection, schedule: Q01DX009 (ip), vehicle: Klucel (hydroxypropylcellulose) (HPC)): 109 % of control | T/C (dose: 50.0 mg/kg/injection, schedule: Q01DX009 (ip), vehicle: Klucel (hydroxypropylcellulose) (HPC)): 111 % of control | T/C (dose: 100.0 mg/kg/injection, schedule: Q01DX009 (ip), vehicle: Klucel (hydroxypropylcellulose) (HPC)): 117 % of control | T/C (dose: 200.0 mg/kg/injection, schedule: Q01DX009 (ip), vehicle: Klucel (hydroxypropylcellulose) (HPC)): 107 % of control

Cc1c2oc3c(C)ccc(C(=O)NCc4ccccc4)c3nc-2c(C(=O)NCc2ccccc2)c(N)c1=O
T/C (dose: 100.0 mg/kg/injection, schedule: Q04DX002 (sc), vehicle: olive oil, sesame oil, peanut oil): 99 % of control | T/C (dose: 200.0 mg/kg/injection, schedule: Q04DX002 (sc), vehicle: olive oil, sesame oil, peanut oil): 98 % of control | T/C (dose: 400.0 mg/kg/injection, schedule: Q04DX002 (sc), vehicle: olive oil, sesame oil, peanut oil): 101 % of control

O=C(Nc1cccc2c(OC(=O)C(Cl)Cl)c(N=Nc3ccc(S(=O)(=O)Nc4nccs4)cc3)cc(N=Nc3ccc(S(=O)(=O)Nc4nccs4)cc3)c12)C(Cl)Cl (tested in a mixture with another compound)
T/C [7]: 103 % of control | T/C [2]: 110 % of control | T/C [8]: 103 % of control | T/C [3]: 124 % of control

O=C(/C=C/c1ccc(F)cc1)c1ccc(Cl)cc1
T/C [3]: 90 % of control | T/C [4]: 90 % of control | T/C (dose: 400.0 mg/kg/injection, schedule: Q01DX009 (ip), vehicle: saline with Tween-80): 100 % of control

CCOC(=O)COc1ccc(C=O)cc1
T/C [14]: 103 % of control | T/C [15]: 92 % of control

Reference: PubChem BioAssay AID328 (DTP/NCI, 2004)
